What all share (test): relative viability (nuclei count vs DMSO), 5 days (fraction); higher = more cells survive
Compound in the assay “MK-8033 + Alpelisib”: Cn1cc(-c2cnc3ccc4ccc(CS(=O)(=O)NCc5ccccn5)cc4c(=O)c3c2)cn1 [MK-8033] + Cc1nc(NC(=O)N2CCC[C@H]2C(N)=O)sc1-c1ccnc(C(C)(C)C(F)(F)F)c1 [Alpelisib] (partner 2 µM)
Put shortly: (§1)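 Relative viability was taken as the ratio of nuclei in treated wells to nuclei in vehicle wells. Lung cancer cell lines in 1536-well plates received compounds by pin tool one day after seeding, either one drug alone or a fixed anchor-drug dose plus five library-drug doses (not always all listed) in √10 steps. Nuclei were counted on 4× images after 5 days of treatment, and values are medians of duplicate plates.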

Compound in the assay “MK-8033 + Foretinib”: Cn1cc(-c2cnc3ccc4ccc(CS(=O)(=O)NCc5ccccn5)cc4c(=O)c3c2)cn1 [MK-8033] + COc1cc2c(Oc3ccc(NC(=O)C4(C(=O)Nc5ccc(F)cc5)CC4)cc3F)ccnc2cc1OCCCN1CCOCC1 [Foretinib] (partner 0.25 µM)
Put shortly: as §1

Compound in the assay “Irinotecan + Lapatinib”: CCc1c2c(nc3ccc(OC(=O)N4CCC(N5CCCCC5)CC4)cc13)-c1cc3c(c(=O)n1C2)COC(=O)[C@]3(O)CC [Irinotecan] + CS(=O)(=O)CCNCc1ccc(-c2ccc3ncnc(Nc4ccc(OCc5cccc(F)c5)c(Cl)c4)c3c2)o1 [Lapatinib] (partner 2 µM)
The essentials:
as §1

Compound in the assay “RU-SKI 43 + Luminespib”: CC[C@@H](C)CNCC(=O)N1CCC2=C([C@@H]1COC3=CC=CC(=C3)C)C=CS2 [RU-SKI 43] + CCNC(=O)c1noc(-c2cc(C(C)C)c(O)cc2O)c1-c1ccc(CN2CCOCC2)cc1 [Luminespib] (partner 0.01 µM)
The essentials:
as §1

With UMC-11, the relative viability amounted to 0.988 with MK-8033 + Alpelisib (first compound 0.02 µM); 0.979 with MK-8033 + Alpelisib (first compound 0.06325 µM); 0.958 in the assay with MK-8033 + Alpelisib (first compound 0.2 µM); 0.961 with MK-8033 + Alpelisib (first compound 0.6325 µM); 0.986 in the assay with MK-8033 + Alpelisib (first compound 2 µM); 1.08 with MK-8033 + Foretinib (first compound 0.02 µM). Also, the relative viability in the assay with MK-8033 + Foretinib (first compound 0.06325 µM) was determined as 1.04; in the assay with MK-8033 + Foretinib (first compound 0.2 µM), 0.989; in the assay with MK-8033 + Foretinib (first compound 2 µM), 1.08; in the assay with Irinotecan + Lapatinib (first compound 0.6325 µM), 0.354; with Irinotecan + Lapatinib (first compound 2 µM), 0.452; in the assay with Irinotecan + Lapatinib (first compound 6.325 µM), 0.259. The relative viability with Irinotecan + Lapatinib (first compound 20 µM) turned out to be 0.2; with RU-SKI 43 + Luminespib (first compound 0.1 µM), 1.13; with RU-SKI 43 + Luminespib (first compound 0.3162 µM), 1.29; in the assay with RU-SKI 43 + Luminespib (first compound 1 µM), 1; in the assay with RU-SKI 43 + Luminespib (first compound 3.162 µM), 1.04; with RU-SKI 43 + Luminespib (first compound 10 µM), 1.09.

Source of the values: the supplement of paper PMC10307832.
